Assay results from ChEMBL document CHEMBL3132769, “Fragment growing to retain or alter the selectivity of anchored kinase hinge-binding fragments” (Medchemcomm, 2014).

Key:
[1] = target: T1, Protein kinase C epsilon type (Homo sapiens) (UniProt Q02156); experiment: Inhibition of human truncated PKC epsilon expressed in baculovirus assessed as substrate phosphorylation using fluorescence-labelled peptides as substrate at 0.2 uM after 90 mins by microfluidic peptide phosphorylation assay
T1 sequence (whole entry): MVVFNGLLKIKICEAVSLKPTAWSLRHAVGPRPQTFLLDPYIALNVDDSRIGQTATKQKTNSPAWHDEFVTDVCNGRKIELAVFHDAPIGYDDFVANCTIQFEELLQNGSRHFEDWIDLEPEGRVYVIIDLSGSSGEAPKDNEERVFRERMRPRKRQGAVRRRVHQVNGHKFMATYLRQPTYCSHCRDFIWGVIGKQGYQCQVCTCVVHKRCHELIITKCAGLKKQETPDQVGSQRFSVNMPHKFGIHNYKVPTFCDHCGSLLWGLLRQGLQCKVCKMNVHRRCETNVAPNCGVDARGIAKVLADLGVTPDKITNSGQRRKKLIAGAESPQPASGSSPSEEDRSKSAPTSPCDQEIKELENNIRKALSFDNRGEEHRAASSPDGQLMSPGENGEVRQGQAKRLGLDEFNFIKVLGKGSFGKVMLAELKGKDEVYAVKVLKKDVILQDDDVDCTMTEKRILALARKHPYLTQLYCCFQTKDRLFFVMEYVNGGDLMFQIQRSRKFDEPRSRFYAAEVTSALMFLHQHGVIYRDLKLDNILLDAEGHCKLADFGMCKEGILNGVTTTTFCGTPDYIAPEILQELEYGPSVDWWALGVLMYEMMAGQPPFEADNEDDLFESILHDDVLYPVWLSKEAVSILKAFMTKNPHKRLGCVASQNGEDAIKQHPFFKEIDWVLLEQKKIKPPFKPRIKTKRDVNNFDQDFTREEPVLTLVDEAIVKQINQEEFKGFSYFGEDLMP

[2] = target: Ribosomal protein S6 kinase alpha-4 (Homo sapiens) (UniProt O75676); experiment: Inhibition of human full length MSK2 expressed in baculovirus assessed as substrate phosphorylation using fluorescence-labelled peptides as substrate at 0.2 uM after 90 mins by microfluidic peptide phosphorylation assay
Sequence of Ribosomal protein S6 kinase alpha-4 (Homo sapiens) (O75676 whole entry, looked up): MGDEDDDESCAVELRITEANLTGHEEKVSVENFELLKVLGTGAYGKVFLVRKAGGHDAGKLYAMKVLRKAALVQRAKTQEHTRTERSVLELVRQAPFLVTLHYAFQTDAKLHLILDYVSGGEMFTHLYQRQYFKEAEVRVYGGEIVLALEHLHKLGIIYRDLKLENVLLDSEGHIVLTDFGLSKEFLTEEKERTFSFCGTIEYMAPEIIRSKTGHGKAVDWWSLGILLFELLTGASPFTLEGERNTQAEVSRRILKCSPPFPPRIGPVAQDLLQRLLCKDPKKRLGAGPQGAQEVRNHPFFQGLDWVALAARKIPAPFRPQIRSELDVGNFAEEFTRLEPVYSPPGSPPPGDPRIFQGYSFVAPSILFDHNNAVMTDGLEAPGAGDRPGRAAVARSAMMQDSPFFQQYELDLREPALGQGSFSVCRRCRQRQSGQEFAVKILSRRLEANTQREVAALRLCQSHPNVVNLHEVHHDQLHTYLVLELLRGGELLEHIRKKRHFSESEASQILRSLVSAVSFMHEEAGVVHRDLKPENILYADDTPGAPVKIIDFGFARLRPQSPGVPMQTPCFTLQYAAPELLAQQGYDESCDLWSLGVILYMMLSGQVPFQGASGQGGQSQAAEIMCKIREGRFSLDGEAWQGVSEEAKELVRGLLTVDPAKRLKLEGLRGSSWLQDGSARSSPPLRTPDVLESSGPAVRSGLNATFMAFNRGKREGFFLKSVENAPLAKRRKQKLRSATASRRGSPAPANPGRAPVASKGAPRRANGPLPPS

[3] = target: T2, Serine/threonine-protein kinase Sgk3 (Homo sapiens) (UniProt Q96BR1); experiment: Inhibition of human full length SGK3 expressed in baculovirus assessed as substrate phosphorylation using fluorescence-labelled peptides as substrate at 0.2 uM after 90 mins by microfluidic peptide phosphorylation assay
T2 sequence (whole entry): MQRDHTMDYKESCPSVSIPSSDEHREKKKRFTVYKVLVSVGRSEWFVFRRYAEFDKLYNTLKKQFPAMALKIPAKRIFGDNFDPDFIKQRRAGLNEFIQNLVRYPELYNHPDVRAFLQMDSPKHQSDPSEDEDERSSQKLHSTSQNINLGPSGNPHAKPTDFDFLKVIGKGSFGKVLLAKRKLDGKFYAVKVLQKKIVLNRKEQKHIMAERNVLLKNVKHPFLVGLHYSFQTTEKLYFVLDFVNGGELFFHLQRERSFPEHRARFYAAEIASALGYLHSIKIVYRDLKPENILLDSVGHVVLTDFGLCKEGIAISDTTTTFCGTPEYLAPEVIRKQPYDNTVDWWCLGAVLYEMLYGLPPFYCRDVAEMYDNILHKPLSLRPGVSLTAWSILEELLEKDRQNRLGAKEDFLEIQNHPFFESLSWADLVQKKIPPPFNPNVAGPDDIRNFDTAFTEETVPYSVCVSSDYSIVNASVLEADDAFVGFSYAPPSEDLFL

[4] = target: T3, Serine/threonine-protein kinase DCLK2 (Homo sapiens) (UniProt Q8N568); experiment: Inhibition of human full length DCAMKL2 expressed in baculovirus assessed as substrate phosphorylation using fluorescence-labelled peptides as substrate at 9 uM after 90 mins by microfluidic peptide phosphorylation assay
T3 sequence (whole entry): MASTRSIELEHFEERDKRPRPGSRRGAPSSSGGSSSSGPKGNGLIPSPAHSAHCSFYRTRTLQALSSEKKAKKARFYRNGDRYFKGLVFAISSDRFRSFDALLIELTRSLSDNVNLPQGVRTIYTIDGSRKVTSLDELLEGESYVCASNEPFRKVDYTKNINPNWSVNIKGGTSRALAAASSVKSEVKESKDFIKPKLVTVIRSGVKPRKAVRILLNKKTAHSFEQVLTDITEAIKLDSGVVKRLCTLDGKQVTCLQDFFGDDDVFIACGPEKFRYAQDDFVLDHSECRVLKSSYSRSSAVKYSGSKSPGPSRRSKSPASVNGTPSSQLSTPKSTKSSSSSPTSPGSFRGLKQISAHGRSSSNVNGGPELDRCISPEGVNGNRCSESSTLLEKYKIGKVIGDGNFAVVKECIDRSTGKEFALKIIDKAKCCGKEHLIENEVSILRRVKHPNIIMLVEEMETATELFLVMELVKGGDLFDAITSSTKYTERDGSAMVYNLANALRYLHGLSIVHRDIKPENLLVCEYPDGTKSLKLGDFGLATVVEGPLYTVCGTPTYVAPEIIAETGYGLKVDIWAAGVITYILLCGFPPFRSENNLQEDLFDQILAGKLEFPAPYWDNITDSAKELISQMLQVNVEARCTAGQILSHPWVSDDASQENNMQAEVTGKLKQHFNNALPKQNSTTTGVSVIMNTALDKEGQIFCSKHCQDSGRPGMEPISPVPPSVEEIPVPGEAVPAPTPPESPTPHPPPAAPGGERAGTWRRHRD

[5] = target: T1, Protein kinase C epsilon type (Homo sapiens); experiment: Inhibition of human truncated PKC epsilon expressed in baculovirus assessed as substrate phosphorylation using fluorescence-labelled peptides as substrate at 2 uM after 90 mins by microfluidic peptide phosphorylation assay
[6] = target: Ribosomal protein S6 kinase alpha-2 (Homo sapiens) (UniProt Q15349); experiment: Inhibition of human full length RSK3 expressed in baculovirus assessed as substrate phosphorylation using fluorescence-labelled peptides as substrate at 0.1 uM after 90 mins by microfluidic peptide phosphorylation assay
Sequence of Ribosomal protein S6 kinase alpha-2 (Homo sapiens) (Q15349 whole entry): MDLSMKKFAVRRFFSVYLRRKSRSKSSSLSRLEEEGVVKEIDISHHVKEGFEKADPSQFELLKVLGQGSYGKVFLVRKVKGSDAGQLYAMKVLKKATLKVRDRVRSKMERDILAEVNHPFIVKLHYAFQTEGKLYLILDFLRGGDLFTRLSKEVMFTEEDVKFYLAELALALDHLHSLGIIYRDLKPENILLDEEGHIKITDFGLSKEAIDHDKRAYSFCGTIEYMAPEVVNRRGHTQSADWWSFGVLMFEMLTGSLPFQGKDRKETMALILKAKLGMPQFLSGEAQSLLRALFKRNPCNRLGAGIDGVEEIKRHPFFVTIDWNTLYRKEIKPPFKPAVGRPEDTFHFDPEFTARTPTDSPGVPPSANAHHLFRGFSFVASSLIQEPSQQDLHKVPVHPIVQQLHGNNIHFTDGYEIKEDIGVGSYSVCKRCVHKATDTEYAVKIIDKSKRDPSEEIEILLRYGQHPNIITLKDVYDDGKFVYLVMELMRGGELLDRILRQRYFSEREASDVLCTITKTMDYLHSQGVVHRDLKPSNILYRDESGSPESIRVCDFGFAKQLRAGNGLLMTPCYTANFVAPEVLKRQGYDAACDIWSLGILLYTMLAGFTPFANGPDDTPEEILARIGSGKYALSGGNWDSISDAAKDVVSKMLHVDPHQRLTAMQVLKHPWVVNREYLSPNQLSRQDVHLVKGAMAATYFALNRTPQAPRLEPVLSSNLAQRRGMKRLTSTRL

[7] = target: Mitogen-activated protein kinase 3 (Homo sapiens) (UniProt P27361); experiment: Inhibition of human full length ERK1 expressed in Escherichia coli cell assessed as substrate phosphorylation using fluorescence-labelled peptides as substrate at 95 uM after 90 mins by microfluidic peptide phosphorylation assay
Sequence of Mitogen-activated protein kinase 3 (Homo sapiens) (P27361 whole entry, the tested form may be a part): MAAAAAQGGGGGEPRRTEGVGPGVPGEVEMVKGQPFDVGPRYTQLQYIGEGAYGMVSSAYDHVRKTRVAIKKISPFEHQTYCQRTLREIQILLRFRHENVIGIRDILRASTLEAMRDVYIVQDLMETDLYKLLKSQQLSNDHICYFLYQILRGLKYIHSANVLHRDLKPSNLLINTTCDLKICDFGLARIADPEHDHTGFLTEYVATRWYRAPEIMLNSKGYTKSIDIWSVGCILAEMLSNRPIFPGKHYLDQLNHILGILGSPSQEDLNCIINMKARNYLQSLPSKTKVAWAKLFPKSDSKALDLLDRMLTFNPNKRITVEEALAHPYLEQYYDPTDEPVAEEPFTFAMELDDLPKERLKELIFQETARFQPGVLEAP

[8] = target: Rho-associated protein kinase 2 (Homo sapiens) (UniProt O75116); experiment: Inhibition of human ROCK2 catalytic domain expressed in baculovirus assessed as substrate phosphorylation using fluorescence-labelled peptides as substrate at 0.06 uM after 90 mins by microfluidic peptide phosphorylation assay
Sequence of Rho-associated protein kinase 2 (Homo sapiens) (O75116 whole entry, looked up, the tested form may be a part): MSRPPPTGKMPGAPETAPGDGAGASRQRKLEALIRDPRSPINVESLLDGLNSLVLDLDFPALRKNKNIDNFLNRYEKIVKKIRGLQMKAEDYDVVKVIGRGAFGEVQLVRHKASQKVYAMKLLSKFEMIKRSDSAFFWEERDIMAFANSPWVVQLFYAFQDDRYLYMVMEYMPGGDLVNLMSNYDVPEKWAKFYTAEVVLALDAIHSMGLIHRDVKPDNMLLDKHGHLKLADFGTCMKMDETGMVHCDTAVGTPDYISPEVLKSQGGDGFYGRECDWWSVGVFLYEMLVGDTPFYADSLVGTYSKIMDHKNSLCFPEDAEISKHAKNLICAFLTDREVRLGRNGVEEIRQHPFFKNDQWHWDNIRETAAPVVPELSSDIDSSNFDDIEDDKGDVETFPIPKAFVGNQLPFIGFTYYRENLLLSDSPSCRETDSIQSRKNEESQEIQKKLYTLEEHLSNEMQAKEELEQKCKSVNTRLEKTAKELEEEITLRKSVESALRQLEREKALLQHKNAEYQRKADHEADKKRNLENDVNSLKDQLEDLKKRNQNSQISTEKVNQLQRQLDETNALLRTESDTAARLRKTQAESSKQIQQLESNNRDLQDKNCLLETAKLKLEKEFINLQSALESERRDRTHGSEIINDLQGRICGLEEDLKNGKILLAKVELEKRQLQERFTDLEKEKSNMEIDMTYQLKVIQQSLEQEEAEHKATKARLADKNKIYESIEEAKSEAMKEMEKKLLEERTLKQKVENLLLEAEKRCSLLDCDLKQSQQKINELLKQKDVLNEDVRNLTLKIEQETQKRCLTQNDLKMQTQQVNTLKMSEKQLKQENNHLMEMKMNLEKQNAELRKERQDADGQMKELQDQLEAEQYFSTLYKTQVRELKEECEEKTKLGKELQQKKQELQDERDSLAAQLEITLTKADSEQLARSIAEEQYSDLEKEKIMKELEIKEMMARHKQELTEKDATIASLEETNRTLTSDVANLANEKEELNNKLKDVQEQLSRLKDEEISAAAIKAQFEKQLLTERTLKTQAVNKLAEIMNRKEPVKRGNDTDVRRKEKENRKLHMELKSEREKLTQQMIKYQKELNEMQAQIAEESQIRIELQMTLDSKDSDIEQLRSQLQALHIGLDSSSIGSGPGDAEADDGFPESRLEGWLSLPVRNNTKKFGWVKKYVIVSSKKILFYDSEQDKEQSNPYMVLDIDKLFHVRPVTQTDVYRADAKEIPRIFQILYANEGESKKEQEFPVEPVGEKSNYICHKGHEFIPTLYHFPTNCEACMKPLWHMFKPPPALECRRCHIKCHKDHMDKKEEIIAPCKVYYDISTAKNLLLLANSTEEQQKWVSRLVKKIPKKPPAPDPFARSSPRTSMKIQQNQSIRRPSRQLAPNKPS

[9] = target: Calcium/calmodulin-dependent protein kinase type II subunit delta (Homo sapiens) (UniProt Q13557); experiment: Inhibition of human full length CAMK2D expressed in baculovirus assessed as substrate phosphorylation using fluorescence-labelled peptides as substrate at 8 uM after 90 mins by microfluidic peptide phosphorylation assay
Sequence of Calcium/calmodulin-dependent protein kinase type II subunit delta (Homo sapiens) (Q13557 whole entry): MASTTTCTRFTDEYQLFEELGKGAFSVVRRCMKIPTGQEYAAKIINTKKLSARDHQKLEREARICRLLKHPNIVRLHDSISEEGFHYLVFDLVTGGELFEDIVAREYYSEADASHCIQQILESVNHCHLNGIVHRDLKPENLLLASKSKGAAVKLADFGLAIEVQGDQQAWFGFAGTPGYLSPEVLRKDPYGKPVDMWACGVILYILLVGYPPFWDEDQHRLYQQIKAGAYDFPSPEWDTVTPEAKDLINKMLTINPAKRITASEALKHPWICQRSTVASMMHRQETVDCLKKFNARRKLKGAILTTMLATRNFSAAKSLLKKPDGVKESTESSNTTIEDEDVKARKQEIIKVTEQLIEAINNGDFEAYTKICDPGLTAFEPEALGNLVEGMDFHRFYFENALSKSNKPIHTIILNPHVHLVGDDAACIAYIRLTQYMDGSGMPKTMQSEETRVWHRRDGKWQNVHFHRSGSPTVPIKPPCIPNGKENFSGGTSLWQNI

[10] = target: Mitogen-activated protein kinase 3 (Homo sapiens) (UniProt P27361); experiment: Inhibition of human full length ERK1 expressed in Escherichia coli cell assessed as substrate phosphorylation using fluorescence-labelled peptides as substrate at 8 uM after 90 mins by microfluidic peptide phosphorylation assay
[11] = target: Serine/threonine-protein kinase MARK2 (Homo sapiens) (UniProt Q7KZI7); experiment: Inhibition of human full length MARK2 expressed in baculovirus assessed as substrate phosphorylation using fluorescence-labelled peptides as substrate at 1000 uM after 90 mins by microfluidic peptide phosphorylation assay
Sequence of Serine/threonine-protein kinase MARK2 (Homo sapiens) (Q7KZI7 whole entry): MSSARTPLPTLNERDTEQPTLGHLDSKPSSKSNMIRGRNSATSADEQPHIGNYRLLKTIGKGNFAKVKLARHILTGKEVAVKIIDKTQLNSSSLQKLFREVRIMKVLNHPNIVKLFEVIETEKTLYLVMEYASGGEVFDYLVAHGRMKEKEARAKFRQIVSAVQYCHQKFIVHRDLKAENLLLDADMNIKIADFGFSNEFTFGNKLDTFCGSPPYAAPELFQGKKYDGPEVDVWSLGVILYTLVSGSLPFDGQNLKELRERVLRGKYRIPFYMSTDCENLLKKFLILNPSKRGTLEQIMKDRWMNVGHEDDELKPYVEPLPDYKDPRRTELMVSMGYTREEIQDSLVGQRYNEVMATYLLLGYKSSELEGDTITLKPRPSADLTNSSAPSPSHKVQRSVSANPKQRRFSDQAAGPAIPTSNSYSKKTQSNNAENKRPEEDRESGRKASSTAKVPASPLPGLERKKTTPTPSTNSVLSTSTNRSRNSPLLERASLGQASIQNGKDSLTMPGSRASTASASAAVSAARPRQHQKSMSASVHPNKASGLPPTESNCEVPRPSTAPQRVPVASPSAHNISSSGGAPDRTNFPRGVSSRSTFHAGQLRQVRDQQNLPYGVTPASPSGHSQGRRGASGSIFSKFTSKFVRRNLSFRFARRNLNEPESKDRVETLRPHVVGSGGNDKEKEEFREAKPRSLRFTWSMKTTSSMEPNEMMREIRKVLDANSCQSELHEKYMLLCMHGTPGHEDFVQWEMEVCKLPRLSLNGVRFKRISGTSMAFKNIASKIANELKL

Clc1ccc(C2(c3ccc(-c4ncnc5[nH]cnc45)cc3)CCNCC2)cc1
inhibition [1]: 46.5% | inhibition [2]: 82.5% | inhibition [3]: 41%

NCC1CN(c2ncnc3[nH]c4cnccc4c23)CCO1 (stereo unspecified)
inhibition [4]: 3%

NC1CCN(c2ncnc3[nH]ccc23)CC1
inhibition [5]: 2.5%

C[C@H](CN(C)C)Oc1nc(Nc2cc3cccc(Cl)c3cn2)cnc1C#N
inhibition [6]: 60.5%

NCCc1ccc(-c2ncnc3[nH]cnc23)cc1
inhibition [7]: 59%

NC1(Cc2ccc(Cl)cc2)CCN(c2ncnc3[nH]ccc23)CC1
inhibition [8]: 0%

NCC1CCN(c2ncnc3[nH]ccc23)CC1
inhibition [9]: 25% | inhibition [10]: 8.5%

c1cnc2[nH]ccc2c1
inhibition [11]: 75%
